Converted amounts (≈) assume the structure as drawn. Like-named read-outs stand apart in the source and are kept apart here.
What was measured:
[1] = system: E. coli ATCC 25922 (AECO001); experiment: MIC assay, CLSI broth microdilution; format: cell-based; parameters: MIC AECO001: unit not given here; conditions: for MIC: Escherichia coli
Method: (§1) Minimum inhibitory concentrations (MIC) were determined by reference Clinical and Laboratory Standards Institute (CLSI) broth microdilution methods per M7-A7 [2006]. Quality control ranges utilizing E. coli ATCC 25922, P. aeruginosa ATCC 27853 and S. aureus ATCC 29213, and interpretive criteria for comparator agents were as published in CLSI M100-S17 [2007]. Briefly, serial two-fold dilutions of the test compounds were prepared at 2× concentration in Mueller Hinton Broth. The compound dilutions were mixed in 96-well assay plates in a 1:1 ratio with bacterial inoculum. The inoculum was prepared by suspension of a colony from an agar plate that was prepared the previous day. Bacteria were suspended in sterile saline and added to each assay plate to obtain a final concentration of 5×10^5 CFU/mL. The plates were incubated at 35° C. for 20 hours in ambient air.

[2] = system: P. aeruginosa ATCC 27853 (APAE001); experiment: MIC assay, CLSI broth microdilution; format: cell-based; conditions: Pseudomonas aeruginosa
Method: as §1

[3] = ATCC25922, read-out: MIC AECO001
[4] = ATCC27853, read-out: MIC APAE001

MIC ([1]; Table 1, AECO001 is ATCC25922, read-out: MIC AECO001) [µg/mL]	MIC AECO001 ([1]; Table 3, E. coli ATCC25922)	MIC ([2]; Table 1, APAE001 is ATCC27853, read-out: MIC APAE001) [µg/mL]	Structure (SMILES)	MIC [1, 3] [µg/mL]	MIC [2, 4] [µg/mL]
–	–	–	CN[C@@H]1[C@@H](O)[C@@H](O[C@@H]2[C@@H](O)[C@H](O[C@H]3OC(CNCCC(N)C4CC4)=CC[C@H]3N)[C@@H](N)C[C@H]2NC(=O)[C@@H](O)CN)OC[C@]1(C)O (stereo partly drawn) [Example 52, 6′-(3-Amino-3-cyclopropyl-propyl)-1-(3-amino-2(S)-hydroxy-propionyl)-sisomicin]	< 1	1 to 16 (≈ 1.58 to 25.3 µM)
–	–	–	CN[C@@H]1[C@@H](O)[C@@H](O[C@@H]2[C@@H](O)[C@H](O[C@H]3OC(CNCCNC4CNC4)=CC[C@H]3N)[C@@H](N)C[C@H]2NC(=O)[C@@H](O)CN)OC[C@]1(C)O [Example 81, 6′-(N-(Azetidin-3-yl)-2-amino-ethyl)-1-(3-amino-2(S)-hydroxy-propionyl)-sisomicin]	1 to 16 (≈ 1.58 to 25.3 µM)	> 16
–	–	–	CN[C@@H]1[C@@H](O)[C@@H](O[C@@H]2[C@@H](O)[C@H](O[C@H]3OC(CNCC4(N)CC4)=CC[C@H]3N)[C@@H](N)C[C@H]2NC(=O)[C@@H](O)CN)OC[C@]1(C)O [Example 67, 6′-(Methyl-1-Amino-cyclopropyl)-1-(3-amino-2(S)-hydroxy-propionyl)-sisomicin]	1 to 16 (≈ 1.66 to 26.5 µM)	1 to 16 (≈ 1.66 to 26.5 µM)
–	–	–	CN[C@@H]1[C@@H](O)[C@@H](O[C@@H]2[C@@H](O)[C@H](O[C@H]3OC(CNCC(O)CO)=CC[C@H]3N)[C@@H](N)C[C@H]2NC(=O)[C@H](O)CN)OC[C@]1(C)O (stereo partly drawn) [Example 10, 6′-(2-Hydroxy-propanol)-1-(3-amino-2(R)-hydroxy-propionyl)-sisomicin]	1 to 16 (≈ 1.64 to 26.3 µM)	1 to 16 (≈ 1.64 to 26.3 µM)
–	–	–	CN[C@@H]1[C@@H](O)[C@@H](O[C@@H]2[C@@H](O)[C@H](O[C@H]3OC(CNCC4CCCN4)=CC[C@H]3N)[C@@H](N)C[C@H]2NC(=O)[C@@H](O)CCN)OC[C@]1(C)O (stereo partly drawn) [Example 49, 6′-(Methyl-pyrrolidin-2-yl)-1-(4-amino-2(S)-hydroxy-butyryl)-sisomicin]	< 1	1 to 16 (≈ 1.58 to 25.3 µM)
–	–	–	CN[C@@H]1[C@@H](O)[C@@H](O[C@@H]2[C@@H](O)[C@H](O[C@H]3OC(CNC[C@H]4C[C@H](N)C4)=CC[C@H]3NC(=N)N)[C@@H](N)C[C@H]2N)OC[C@]1(C)O [Example 107, 6′-(Methyl-trans-3-amino-cyclobutyl)-2′-guanidinium-sisomicin]	1 to 16 (≈ 1.75 to 27.9 µM)	< 1
–	–	–	CN[C@@H]1[C@@H](O)[C@@H](O[C@@H]2[C@@H](O)[C@H](O[C@H]3OC(CNC(=N)N)=CC[C@H]3NC(=N)N)[C@@H](N)C[C@H]2N)OC[C@]1(C)O [Example 105, 6′,2′-bis-Guanidinium-sisomicin]	> 16	> 16
< 1	1	1 to 16 (≈ 1.65 to 26.4 µM)	CN[C@@H]1[C@@H](O)[C@@H](O[C@@H]2[C@@H](O)[C@H](O[C@H]3OC(CNCCCN)=CC[C@H]3N)[C@@H](N)C[C@H]2NC(=O)[C@@H](O)CCN)OC[C@]1(C)O [Example 48, 6′-(3-Amino-propyl)-1-(4-amino-2(S)-hydroxy-butyryl)-sisomicin]	–	–
–	–	–	CN[C@@H]1[C@@H](O)[C@@H](O[C@@H]2[C@@H](O)[C@H](O[C@H]3OC(CNC[C@H]4C[C@H](N)C4)=CC[C@H]3N)[C@@H](N)C[C@H]2NC(=O)[C@@H](O)CN)OC[C@]1(C)O [Example 59, 6′-(Methyl-trans-3-amino-cyclobutyl)-1-(3-amino-2(S)-hydroxy-propionyl)-sisomicin]	< 1	1 to 16 (≈ 1.62 to 25.9 µM)
–	–	–	CN[C@@H]1[C@@H](O)[C@@H](O[C@@H]2[C@@H](O)[C@H](O[C@H]3OC(CNCCCN)=CC[C@H]3N)[C@@H](N)C[C@H]2NS(=O)(=O)CCN)OC[C@]1(C)O [Example 26, 6′-(3-Amino-propyl)-1-(2-amino-ethylsulfonamide)-sisomicin]	1 to 16 (≈ 1.63 to 26.2 µM)	1 to 16 (≈ 1.63 to 26.2 µM)
–	–	–	CN[C@@H]1[C@@H](O)[C@@H](O[C@@H]2[C@@H](O)[C@H](O[C@H]3OC(CNCCO)=CC[C@H]3N)[C@@H](N)C[C@H]2NS(=O)(=O)CCN)OC[C@]1(C)O [Example 29, 6′-(2-Hydroxy-ethyl)-1-(2-amino-ethylsulfonamide)-sisomicin]	1 to 16 (≈ 1.67 to 26.7 µM)	> 16
–	–	–	CN[C@@H]1[C@@H](O)[C@@H](O[C@@H]2[C@@H](O)[C@H](O[C@H]3OC(CNC[C@H]4C[C@H](N)C4)=CC[C@H]3N)[C@@H](N)C[C@H]2NC(=O)C(O)C2CNC2)OC[C@]1(C)O (stereo partly drawn) [Example 72, 6′-(Methyl-trans-3-amino-cyclobutyl)-1-(2-(azetidin-3-yl)-2-hydroxy-acetyl)-sisomicin]	1 to 16 (≈ 1.55 to 24.9 µM)	1 to 16 (≈ 1.55 to 24.9 µM)
–	–	–	CN[C@@H]1[C@@H](O)[C@@H](O[C@@H]2[C@@H](O)[C@H](O[C@H]3OC(CNCCN)=CC[C@H]3N)[C@@H](N)C[C@H]2NC(=O)[C@@H](O)CCN)OC[C@]1(C)O [Example 38, 6′-(2-Amino-ethyl)-1-(4-amino-2(S)-hydroxy-butyryl)-sisomicin]	< 1	1 to 16 (≈ 1.69 to 27 µM)
–	–	–	CN[C@@H]1[C@@H](O)[C@@H](O[C@@H]2[C@@H](O)[C@H](O[C@H]3OC(CNCC4(O)CCNCC4)=CC[C@H]3N)[C@@H](N)C[C@H]2NC(=O)[C@@H](O)CCN)OC[C@]1(C)O [Example 31]	1 to 16 (≈ 1.51 to 24.2 µM)	1 to 16 (≈ 1.51 to 24.2 µM)
–	–	–	CN[C@@H]1[C@@H](O)[C@@H](O[C@@H]2[C@@H](O)[C@H](O[C@H]3OC(CNCCO)=CC[C@H]3NC(=N)N)[C@@H](N)C[C@H]2N)OC[C@]1(C)O [Example 106, 6′-(2-Hydroxy-ethyl)-2′-guanidinium-sisomicin]	< 1	1 to 16 (≈ 1.87 to 30 µM)
–	–	–	CN[C@@H]1[C@@H](O)[C@@H](O[C@@H]2[C@@H](O)[C@H](O[C@H]3OC(CNCC4(O)CC(N)C4)=CC[C@H]3N)[C@@H](N)C[C@H]2NC(=O)C(O)C2CNC2)OC[C@]1(C)O (some centres unmarked) [Example 83, 6′-(Methyl-3-amino-1-hydroxy-cyclobutyl)-1-(2-(azetidin-3-yl)-2-hydroxy-acetyl)-sisomicin]	1 to 16 (≈ 1.52 to 24.3 µM)	> 16
–	–	–	CN[C@@H]1[C@@H](O)[C@@H](O[C@@H]2[C@@H](O)[C@H](O[C@H]3OC(CNCCCO)=CC[C@H]3N)[C@@H](N)C[C@H]2NC(=O)[C@@H](O)CN)OC[C@]1(C)O [Example 54, 6′-(3-Propanol)-1-(3-amino-2(S)-hydroxy-propionyl)-sisomicin]	< 1	1 to 16 (≈ 1.69 to 27 µM)
–	–	–	CN[C@@H]1[C@@H](O)[C@@H](O[C@@H]2[C@@H](O)[C@H](O[C@H]3OC(CNC[C@H]4C[C@H](O)CN4)=CC[C@H]3N)[C@@H](N)C[C@H]2NC(=O)[C@@H](O)CN)OC[C@]1(C)O [Example 53, 6′-(Methyl-4(S)-hydroxy-pyrrolidin-2(R)-yl)-1-(3-amino-2(S)-hydroxy-propionyl)-sisomicin]	1 to 16 (≈ 1.58 to 25.2 µM)	> 16
–	–	–	CN[C@@H]1[C@@H](O)[C@@H](O[C@@H]2[C@@H](O)[C@H](O[C@H]3OC(CNCCCN)=CC[C@H]3N)[C@@H](N)C[C@H]2NC(=O)[C@H](O)CCN)OC[C@]1(C)O [Example 6, 6′-(3-Amino-propyl)-1-(4-amino-2(R)-hydroxy-butyryl)-sisomicin]	1 to 16 (≈ 1.65 to 26.4 µM)	1 to 16 (≈ 1.65 to 26.4 µM)
–	–	–	CN[C@@H]1[C@@H](O)[C@@H](O[C@@H]2[C@@H](O)[C@H](O[C@H]3OC(CNCC(O)CO)=CC[C@H]3N)[C@@H](N)C[C@H]2NC(=O)[C@@H](O)CN)OC[C@]1(C)O (stereo partly drawn) [Example 14, 6′-(2-Hydroxy-propanol)-1-(3-amino-2(S)-hydroxy-propionyl)-sisomicin]	1 to 16 (≈ 1.64 to 26.3 µM)	1 to 16 (≈ 1.64 to 26.3 µM)
–	–	–	CN[C@@H]1[C@@H](O)[C@@H](O[C@@H]2[C@@H](O)[C@H](O[C@H]3OC(CNCCO)=CC[C@H]3N)[C@@H](N)C[C@H]2NC(=O)C2(O)CC(N)C2)OC[C@]1(C)O (some centres unmarked) [Example 62]	< 1	1 to 16 (≈ 1.65 to 26.5 µM)
–	–	–	CN[C@@H]1[C@@H](O)[C@@H](O[C@@H]2[C@@H](O)[C@H](O[C@H]3OC(CNC[C@H]4C[C@H](N)C4)=CC[C@H]3N)[C@@H](N)C[C@H]2NC(=O)C2(O)CNC2)OC[C@]1(C)O [Example 63]	< 1	1 to 16 (≈ 1.59 to 25.4 µM)
–	–	–	CN[C@@H]1[C@@H](O)[C@@H](O[C@@H]2[C@@H](O)[C@H](O[C@H]3OC(CN)=CC[C@H]3NC(=O)C(O)CN)[C@@H](N)C[C@H]2NC(=O)[C@@H](O)CCN)OC[C@]1(C)O (stereo partly drawn) [Example 89, 2′-(3-Amino-2-hydroxy-propionyl)-1-(4-amino-2(S)-hydroxy-butyryl)-sisomicin]	< 1	1 to 16 (≈ 1.57 to 25.2 µM)
–	–	–	CN[C@@H]1[C@@H](O)[C@@H](O[C@@H]2[C@@H](O)[C@H](O[C@H]3OC(CN)=CC[C@H]3NC(=O)CC3CNCCO3)[C@@H](N)C[C@H]2NC(=O)[C@@H](O)CCN)OC[C@]1(C)O (stereo partly drawn) [Example 92, 2′-(Morpholin-2-yl-acetyl)-1-(4-amino-2(S)-hydroxy-butyryl)-sisomicin]	< 1	> 16
–	–	–	CN[C@@H]1[C@@H](O)[C@@H](O[C@@H]2[C@@H](O)[C@H](O[C@H]3OC(CNCC4CC4)=CC[C@H]3N)[C@@H](N)C[C@H]2NC(=O)C(O)C2CNC2)OC[C@]1(C)O (some centres unmarked) [Example 71, 6′-Methylcyclopropyl-1-(2-(azetidin-3-yl)-2-hydroxy-acetyl)-sisomicin]	1 to 16 (≈ 1.63 to 26 µM)	> 16
–	–	–	CN[C@@H]1[C@@H](O)[C@@H](O[C@@H]2[C@@H](O)[C@H](O[C@H]3OC(CN)=CC[C@H]3NCC3CCNC3)[C@@H](N)C[C@H]2NC(=O)[C@@H](O)CCN)OC[C@]1(C)O (stereo partly drawn) [Example 84, 2′-(Methyl-pyrrolidin-3-yl)-1-(4-amino-2(S)-hydroxy-butyryl)-sisomicin]	< 1	1 to 16 (≈ 1.58 to 25.3 µM)
